Data set [1] has as its system BV-2. Briefly: Antiinflammatory activity in mouse BV2 cells assessed as inhibition of LPS-stimulated nitric oxide production by Griess assay. The format is functional, cell-based.
A short description of data set [2]: Cytotoxicity against mouse BV2 cells assessed as cell viability at 40 uM relative to control. The format is cell-based, BV-2. The note with it: read-out: Activity.
Data set [3] relates to BV-2. Put plainly: Antiinflammatory activity in mouse BV2 cells assessed as inhibition of LPS-stimulated nitric oxide production at 40 uM by Griess assay relative to control. The format is functional.

pIC50: −log10 of the molar value.

For `C=C1CCC[C@H]2[C@](C=O)(Cc3cc(C(=O)OC)c(O)c(OC)c3O)[C@@H](C)CC[C@]12C`, in data set [1], the pIC50 is less than 4.40. Further, the viability at 40 µM in data set [2] stood at 106%.

Regarding `C=C1CCC[C@H]2[C@](C)(Cc3cc(C(=O)OC)ccc3O)[C@@H](C)CC[C@]12C`, the pIC50 in data set [1] is less than 4.40. Further, the viability at 40 µM in data set [2] came out at 121%.

As for `C=C1CCC[C@H]2[C@](CO)(Cc3cc(C(=O)OC)cc(OC)c3O)[C@H](C)CC[C@]12C`, the inhibition at 40 µM in data set [3] is more than 50%. In addition, the pIC50 in data set [1] is 4.61. In data set [2], the viability at 40 µM was found to be 171%.

Take `C=C1CCC[C@H]2[C@](C)(CC3=C(O)C(=O)C=C(OC)C3=O)[C@@H](C)CC[C@]12C` [ILIMAQUINONE]: the inhibition at 40 µM in data set [3] was more than 50%. Also, the pIC50 in data set [1] was 4.98. Besides, the viability at 40 µM in data set [2] came out at 95.7%.

For `C=C1CCC[C@H]2[C@](C)(Cc3c(O)c(OC)cc4ncoc34)[C@@H](C)CC[C@]12C`, the pIC50 in data set [1] was less than 4.40. The viability at 40 µM in data set [2] amounted to 92.1%.

In the case of `CNC(=N)NCCC[C@H](N)C(=O)O` [TILARGININE], in data set [1], the pIC50 was 4.66. For the same compound, in data set [2], the viability at 40 µM was 95.5%.

For `C=C1CCC[C@H]2[C@](C)(C[C@@H]3C(=O)C=C(OC)[C@@H]3O)[C@@H](C)CC[C@]12C`, in data set [3], the inhibition at 40 µM is more than 50%. Further, the pIC50 in data set [1] was 4.55. Also, the viability at 40 µM in data set [2] stood at 174%.

On to `C=C1CCC[C@H]2[C@](C)(Cc3cc(C(=O)OC)cc(OC)c3O)[C@@H](C)CC[C@]12C` [POLYFIBROSPONGOL A], for which the pIC50 in data set [1] is less than 4.40. Also, the viability at 40 µM in data set [2] worked out at 125%.

Consider `C=C1CCC[C@H]2[C@](C)(C[C@H]3C(=O)C=C(OC)[C@@H]3O)[C@@H](C)CC[C@]12C`, for which the inhibition at 40 µM in data set [3] is more than 50%. Also, the pIC50 in data set [1] was 4.52. Moreover, the viability at 40 µM in data set [2] stood at 141%.

As for `C=C1CCC[C@H]2[C@](CO)(Cc3cc(C(=O)OC)c(O)c(OC)c3O)[C@@H](C)CC[C@]12C`, the inhibition at 40 µM in data set [3] is more than 50%. The pIC50 in data set [1] is 4.61. Besides, in data set [2], the viability at 40 µM was found to be 160%.
